Measurements taken from patent US4681895A, “Novel guanidinomethylcyclohexanecarboxylic acid compounds and anti-ulcer drug containing the same” (Kanebo, Ltd., priority 1985, dated 1987).

Legend:
[1] = test system: ethanol-induced gastric ulcer; assay: Activity against ethanol-induced gastric ulcer; assay type: in vivo, Male Sprague-Dawley rats; conditions: Rattus norvegicus; oral, rats, 30 min before 99.5% ethanol 1 ml orally; killed 1 hour after; read-out: ED50, Anti-ethanol-induced ulcer
Description: (§1) The same test compounds as used in Experiment 1 were used.
The experiment was carried out according to the method of Robert et al. [cf. Gastroenterology, 77, 433 (1979)].
Male Sprague-Dawley rats weighing 180-200 g (8 week old), 6-8 per group, were fasted for 24 hours and administered orally with each test compound which was suspended in 1% arabic gum aqueous solution. After 30 minutes, 99.5% ethanol (as a necrotizing agent) was given orally to the rats in a volume of 1 ml. The animals were killed by ether inhalation 1 hour after receiving of ethanol. The stomach of each rat was removed, inflated by injecting 12 ml of 1 % formalin, and immersed in 1% formalin for 15 minutes. Afterward, the mean ulcer index and inhibitory ratio were calculated by the same method as in Experiment 1, and then the ED50 was calculated by dose-response curve.

[2] = test system: indomethacin-induced gastric ulcer; assay: Activity against indomethacin-induced gastric ulcer; assay type: in vivo, Male Sprague-Dawley rats; conditions: Rattus norvegicus; oral, rats, 15 min before indomethacin 30 mg/kg subcutaneously; killed 5 hours after; read-out: ED50, Anti-indomethacin-induced ulcer
Description: as §1
The experiment was carried out by a modified method of that of Okabe et al. [cf. Dig. Dis. Sci., 28, 1034 (1983)].
Male Sprague-Dawley rats weighing 180-200 g (8 week old), 6-8 per group, were fasted for 24 hours and administered orally with each test compound which was suspended in 1% arabic gum aqueous solution. After 15 minutes, indomethacin (in a solution in 3% sodium bicarbonate solution) was given subcutaneously to the rats at a dose of 30 mg/kg. The animals were killed by ether inhalation 5 hours after receiving of indomethacin. The stomach of each rat was removed, inflated by injecting 12 ml of 1% formalin, containing 0.1% pontamine sky blue, and immersed in 1% formalin for 15 minutes. Afterward, the mean ulcer index and inhibitory ratio were calculated by the same method as in Experiment 1, and then ED50 was calculated by dose response curve.

[3] = test system: Male ddY mice; assay: Test of acute toxity [minimum lethal dose (MLD)]; assay type: in vivo; conditions: oral, mice fasted 17 hours, observed for 7 days
Description: as §1
Male ddY mice weighing 20-22 g (4 week old), 5 per group, were fasted for 17 hours and administered orally with each test compound which was suspended in 1% arabic gum aqueous solution.

[4] = test system: stress-induced gastric ulcer; assay: Activity against stress-induced gastric ulcer; assay type: in vivo, Male Sprague-Dawley rats; conditions: Rattus norvegicus; oral, rats, 15 min before stress cage in 23° C. water bath for 17 hours; read-out: ED50, Anti-stress-induced ulcer
Description: The experiment was carried out by a modified method of that of Takagi and Okabe [cf. Jap. J. Pharmacol., 18, 9 (1968)]. Male Sprague-Dawley rats weighing 180-200 g (8 week old), 6-8 per group, were fasted for 24 hours and administered orally with each test compound which was suspended in 1% arabic gum aqueous solution. After 15 minutes, the animals were placed in a stress cage and immerse vertically to the level of the xiphoid process in a water bath kept at 23° C. for 17 hours. The animals were killed by ether inhalation. The stomach of each rat was removed, inflated by injecting 12 ml of 1% formalin, and immersed in 1% formalin for 15 minutes. The stomach was then incised along the greater curvature and examined for lesions in the glandular portion under a dissecting microscope. The length (mm) of a ulcer was totalled on each animal and it was indicated as the ulcer index. The mean ulcer index (m) in each test compound-treated group was calculated. The control animals received the same procedure without administering of test compound and the mean ulcer index (l) was calculated. Inhibitory ratio of test compound is expressed as follows. Inhibitory ratio (%)=(1-m/l)×100 wherein l is mean ulcer index in control group, and m is mean ulcer index in test compound-treated group. The anti-ulcer activity of test compound (ED50) was calculated by dose-response curve.

[5] = test system: peptic ulcers; conditions: disclosed in Japanese Patent First Publications; cited from earlier work

SMILES | ED50 [1] | ED50 [2] | MLD (acute toxicity) [3] | ED50 [4] | anti-ulcer activity, in words [5]
CCOC(=O)c1ccccc1NC(=O)[C@H]1CC[C@H](CNC(=N)N)CC1.Cl.O [A, N-(o-Ethoxycarbonylphenyl)-trans-4-guanidinomethylcyclohexanecarboxamide hydrochloride monohydrate] | 36 mg/kg | 33 mg/kg | > 3,000 mg/kg | 108 mg/kg | –
COC(=O)c1ccccc1NC(=O)[C@H]1CC[C@H](CNC(=N)N)CC1.Cl.O [B, N-(o-Methoxycarbonylphenyl)-trans-4-guanidinomethylcyclohexanecarboxamide hydrochloride monohydrate] | 42 mg/kg | 40 mg/kg | > 3,000 mg/kg | 118 mg/kg | –
Cl.N=C(N)NC[C@H]1CC[C@H](C(=O)Nc2ccccc2C(=O)O)CC1.O [C, N-(o-Carboxyphenyl)-trans-4-guanidinomethylcyclohexanecarboxamide hydrochloride monohydrate] | 41 mg/kg | 37 mg/kg | > 3,000 mg/kg | 114 mg/kg | –
Cl.N=C(N)NC[C@H]1CC[C@H](C(=O)Oc2ccccc2C(=O)OCc2ccccc2)CC1 [X, Trans-4-guanidinomethylcyclohexanecarboxylic acid o-benzyloxycarbonylphenylester hydrochloride, reference compound] | 108 mg/kg | 103 mg/kg | > 3,000 mg/kg | 376 mg/kg | shows an anti-ulcer activity
Cl.N=C(N)NC[C@H]1CC[C@H](C(=O)Nc2ccccc2)CC1 [Y, N-Phenyl-trans-4-guanidinomethylcyclohexanecarboxamide hydrochloride, reference compound] | 199 mg/kg | 86 mg/kg | < 1,000 mg/kg | 135 mg/kg | shows an anti-ulcer activity
